Reference: publication PMC12441834, “Highly Potent and Subtype-Selective Sperm-Specific Potassium Channel SLO3 Inhibitors Display High Tissue Exposure in the Murine Female Reproductive Tract” (ACS Pharmacology & Translational Science, 2025)
Several values for one entry are separate records, joined by “and”; a condition that tells them apart may be missing. Equal values may be shown once. Read-outs that look alike come from different tables or passages of the source.

Columns and labels:
Kinetic solubility = format: physicochemical; conditions: aqueous buffer, kinetic from dmso stock; pH 2.2; pH 6.8; read-out: Kinetic Solubility (pH 2.2; pH6.8)
hSLO2.1 = biological target: T1, hSLO2.1 (Homo sapiens, UniProt Q6UVM3); test: SLO2.1 inhibition in HEK cells; format: cell-based; conditions: HEK293; read-out: HEK hSLO2.1 % inhib. 10 μM
T1 construct: expressed in transfected cells; host or cells: HEK
T1 sequence (Q6UVM3 1-1135): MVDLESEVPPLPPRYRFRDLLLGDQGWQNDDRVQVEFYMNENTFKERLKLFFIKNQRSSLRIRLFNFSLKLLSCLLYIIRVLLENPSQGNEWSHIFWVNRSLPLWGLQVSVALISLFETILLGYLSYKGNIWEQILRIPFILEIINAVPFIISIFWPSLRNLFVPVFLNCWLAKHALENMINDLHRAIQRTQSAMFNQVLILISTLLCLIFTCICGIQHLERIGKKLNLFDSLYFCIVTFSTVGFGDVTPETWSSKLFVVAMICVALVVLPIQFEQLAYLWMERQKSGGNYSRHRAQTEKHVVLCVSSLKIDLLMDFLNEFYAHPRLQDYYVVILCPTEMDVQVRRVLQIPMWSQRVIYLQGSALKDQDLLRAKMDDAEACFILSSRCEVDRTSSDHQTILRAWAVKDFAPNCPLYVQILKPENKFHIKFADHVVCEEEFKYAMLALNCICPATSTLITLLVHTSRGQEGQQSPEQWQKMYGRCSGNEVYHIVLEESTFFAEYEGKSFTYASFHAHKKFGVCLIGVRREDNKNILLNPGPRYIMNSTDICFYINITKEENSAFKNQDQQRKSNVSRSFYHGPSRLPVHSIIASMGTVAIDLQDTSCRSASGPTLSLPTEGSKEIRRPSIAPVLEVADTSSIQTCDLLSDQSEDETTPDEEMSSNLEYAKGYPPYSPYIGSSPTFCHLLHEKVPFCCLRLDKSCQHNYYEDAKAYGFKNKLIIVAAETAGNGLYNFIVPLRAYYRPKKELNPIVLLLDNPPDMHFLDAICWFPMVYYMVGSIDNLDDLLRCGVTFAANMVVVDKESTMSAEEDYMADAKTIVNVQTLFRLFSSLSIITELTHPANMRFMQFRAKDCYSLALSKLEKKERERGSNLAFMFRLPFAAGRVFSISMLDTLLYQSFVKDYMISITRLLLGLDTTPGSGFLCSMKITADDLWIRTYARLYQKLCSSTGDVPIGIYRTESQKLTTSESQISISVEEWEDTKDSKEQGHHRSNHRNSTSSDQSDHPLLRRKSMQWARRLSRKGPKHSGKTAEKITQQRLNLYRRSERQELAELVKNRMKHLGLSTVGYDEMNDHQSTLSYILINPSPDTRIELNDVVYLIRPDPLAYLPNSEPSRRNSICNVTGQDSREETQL

CYP2D6 = CYP2D6 (Homo sapiens, UniProt P10635); test: CYP450 inhibition; format: in vitro ADME; conditions: read-out: CYP450 Inhibition, 2D6
CYP2D6, sequence (P10635 whole entry, species assumed): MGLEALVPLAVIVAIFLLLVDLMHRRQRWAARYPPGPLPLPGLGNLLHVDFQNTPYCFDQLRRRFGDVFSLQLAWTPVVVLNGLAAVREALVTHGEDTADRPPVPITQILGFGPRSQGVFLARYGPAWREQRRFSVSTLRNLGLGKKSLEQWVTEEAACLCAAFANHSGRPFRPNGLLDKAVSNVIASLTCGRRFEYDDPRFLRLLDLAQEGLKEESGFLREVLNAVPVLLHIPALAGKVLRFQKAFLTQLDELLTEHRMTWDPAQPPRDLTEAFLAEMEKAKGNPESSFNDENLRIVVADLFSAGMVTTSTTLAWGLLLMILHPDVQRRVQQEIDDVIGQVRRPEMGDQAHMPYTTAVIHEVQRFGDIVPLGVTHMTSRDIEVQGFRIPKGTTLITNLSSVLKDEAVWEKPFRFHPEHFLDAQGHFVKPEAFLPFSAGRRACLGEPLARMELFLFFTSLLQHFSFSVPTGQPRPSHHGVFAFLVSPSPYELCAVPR

[1] = Multispecies hepatocyte MetID; format: in vitro ADME, rat; conditions: 4 h incubation with hepatocytes, 10 μM
Description: Metabolites were identified after preincubating each compound at a 10 μM final concentration with 2.5 × 10^5 hepatocytes from human, dog, cynomolgus monkey, and rat in 200 μL of Optiincubate buffer (BioIVT, Westbury, NY). […] After centrifugation, 60 μL of the supernatant was transferred to 60 μL of water for LC-MS analysis. Samples were analyzed using a Thermo Scientific Vanquish UHPLC consisting of a VH-P10-A pump, a VH-A10-A sampler module, a VH-C10-A column compartment, and the VF-D11-A UV detector coupled to an Orbitrap Fusion Lumos instrument with UVPD. A binary solvent system consisting of (A) water with 0.1% formic acid and (B) acetonitrile with 0.1% formic acid was used with an Accucore Vanquish C18+, 2.1 mm × 100 mm, 1.5 μm, UHPLC column maintained at 40 °C. The data generated by data-dependent acquisition via normal acquisition and AcquireX were processed manually with Thermo Scientific FreeStyle and assisted by Compound Discoverer 3.3.1.111 to aid in the structural assignments.

[2] = Distribution ratio female reproductive organs versus plasma after IV dosing; format: in vivo; conditions: C57Bl/6, mouse, female mice, 1 mg/kg IV; for Kp at 0.25 h: reproductive organs / plasma
Description: Samples were analyzed via electrospray ionization (ESI) LC-MS/MS on an AB Sciex 4500 (Foster City, CA) triple-quadrupole instrument that was coupled with an Agilent 1290 Infinity Binary Pump and multisampler (Santa Clara, CA) and concentrations (ng/mL or ng/g) were determined using a matrix-matched 10-point standard curve and then converted to nM concentrations. Quantitation of compounds was performed via AB Sciex Multiquant software using the raw analyte:IS peak area ratios. The typical detection range was 0.5 ng/mL to ≥5000 ng/mL utilizing a quadratic equation regression with 1/x² weighting. Correction for dilution of all tissue samples was performed postquantitation. The corrections for dilution in the extraction buffer employed correction factors specific to each tissue weight.
In-life phase–Compounds were formulated in PEG400:DMSO (4:1, v/v) at a concentration of 1 mg/mL and administered as a single 1 mg/kg dose (1 mL/kg) to female C57Bl/6 mice (n = 2–4; 30 g body weight) via intravenous (i.v.) injection. Blood samples were collected serially from a surgically implanted carotid artery catheter in each animal over multiple postadministration time points (0.25, 0.5, 1, 3, 6, and 24 h) into chilled, K2EDTA anticoagulant-fortified tubes and immediately placed on wet ice. The blood samples were stored at −80 °C until analysis by LC-MS/MS.
At the same time points, female reproductive organs were obtained by rapid dissection, rinsed with PBS, pooled by lots of 2 and immediately frozen in individual tissue collection boxes (dry ice). All tissues and blood samples were stored at −80 °C until analysis by LC-MS/MS.

Adenosine A2A = Adenosine A2A (Homo sapiens, UniProt P29274); test: LeadProfilingScreen radioligand binding
Adenosine A2A, sequence (P29274 whole entry): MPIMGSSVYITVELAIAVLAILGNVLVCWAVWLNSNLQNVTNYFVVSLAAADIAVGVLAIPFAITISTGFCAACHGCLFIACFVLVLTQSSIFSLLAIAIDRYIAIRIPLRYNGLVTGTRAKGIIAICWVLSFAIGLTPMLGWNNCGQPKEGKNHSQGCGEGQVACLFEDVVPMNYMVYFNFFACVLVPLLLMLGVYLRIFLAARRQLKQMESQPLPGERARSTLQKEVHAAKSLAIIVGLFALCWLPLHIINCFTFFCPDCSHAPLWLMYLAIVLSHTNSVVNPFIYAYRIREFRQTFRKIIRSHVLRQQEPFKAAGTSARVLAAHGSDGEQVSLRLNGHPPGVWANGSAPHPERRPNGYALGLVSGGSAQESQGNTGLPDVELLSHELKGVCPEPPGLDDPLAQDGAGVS

Adrenergic α1B = Adrenergic α1B (Homo sapiens, UniProt P35368); test: LeadProfilingScreen radioligand binding
Adrenergic α1B, sequence (P35368 whole entry): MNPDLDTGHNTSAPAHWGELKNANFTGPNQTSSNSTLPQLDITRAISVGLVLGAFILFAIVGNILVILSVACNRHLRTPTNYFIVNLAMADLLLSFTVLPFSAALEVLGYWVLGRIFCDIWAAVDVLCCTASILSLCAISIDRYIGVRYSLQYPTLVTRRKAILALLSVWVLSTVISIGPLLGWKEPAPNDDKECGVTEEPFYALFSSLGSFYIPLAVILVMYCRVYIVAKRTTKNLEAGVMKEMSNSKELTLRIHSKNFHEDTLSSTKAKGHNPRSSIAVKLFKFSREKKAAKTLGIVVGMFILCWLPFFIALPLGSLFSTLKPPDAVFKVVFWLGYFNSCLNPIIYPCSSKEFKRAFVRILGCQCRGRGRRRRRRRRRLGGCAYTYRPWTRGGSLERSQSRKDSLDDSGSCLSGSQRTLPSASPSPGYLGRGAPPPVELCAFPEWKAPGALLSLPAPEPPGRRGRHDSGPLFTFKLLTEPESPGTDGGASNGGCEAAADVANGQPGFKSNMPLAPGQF

[3] = tested on: Calcium Channel L-Type, Benzothiazepine; test: LeadProfilingScreen radioligand binding; set-up: species or system rat
Glutamate, NMDA, Agonism = test: LeadProfilingScreen radioligand binding; set-up: species or system rat
Interleukin IL-1 R1 = Interleukin IL-1 R1 (Homo sapiens, UniProt P14778); test: LeadProfilingScreen radioligand binding
Interleukin IL-1 R1, sequence (P14778 18-569): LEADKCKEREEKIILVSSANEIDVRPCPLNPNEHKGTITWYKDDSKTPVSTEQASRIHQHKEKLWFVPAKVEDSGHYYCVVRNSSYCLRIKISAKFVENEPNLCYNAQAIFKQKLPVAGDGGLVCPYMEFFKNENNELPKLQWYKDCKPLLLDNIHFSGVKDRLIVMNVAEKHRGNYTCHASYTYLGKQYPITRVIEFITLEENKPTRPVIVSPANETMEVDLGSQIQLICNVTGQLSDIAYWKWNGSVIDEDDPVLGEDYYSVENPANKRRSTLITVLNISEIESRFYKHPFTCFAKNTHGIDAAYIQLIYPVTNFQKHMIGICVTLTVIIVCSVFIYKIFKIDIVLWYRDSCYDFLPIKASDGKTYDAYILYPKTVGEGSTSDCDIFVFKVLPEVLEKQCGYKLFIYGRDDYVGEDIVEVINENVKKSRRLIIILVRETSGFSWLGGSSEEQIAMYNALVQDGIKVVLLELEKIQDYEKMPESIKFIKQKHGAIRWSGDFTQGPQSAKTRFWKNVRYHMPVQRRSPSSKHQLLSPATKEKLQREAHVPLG

Melatonin MT1 = Melatonin MT1 (Homo sapiens, UniProt P48039); test: LeadProfilingScreen radioligand binding
Melatonin MT1, sequence (P48039 whole entry): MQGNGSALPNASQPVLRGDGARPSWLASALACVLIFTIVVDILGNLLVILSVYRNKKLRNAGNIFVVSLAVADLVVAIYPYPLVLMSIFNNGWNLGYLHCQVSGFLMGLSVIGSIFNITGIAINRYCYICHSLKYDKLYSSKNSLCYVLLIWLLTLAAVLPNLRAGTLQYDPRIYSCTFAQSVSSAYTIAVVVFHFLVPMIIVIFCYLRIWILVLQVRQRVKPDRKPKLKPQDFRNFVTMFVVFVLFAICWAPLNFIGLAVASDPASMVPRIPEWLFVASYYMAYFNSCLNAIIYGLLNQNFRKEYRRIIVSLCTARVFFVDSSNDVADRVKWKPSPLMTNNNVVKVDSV

Opiate κ (OP2, KOP) = Opiate κ (OP2, KOP) (Homo sapiens, UniProt P41145); test: LeadProfilingScreen radioligand binding
Opiate κ (OP2, KOP), sequence (P41145 whole entry): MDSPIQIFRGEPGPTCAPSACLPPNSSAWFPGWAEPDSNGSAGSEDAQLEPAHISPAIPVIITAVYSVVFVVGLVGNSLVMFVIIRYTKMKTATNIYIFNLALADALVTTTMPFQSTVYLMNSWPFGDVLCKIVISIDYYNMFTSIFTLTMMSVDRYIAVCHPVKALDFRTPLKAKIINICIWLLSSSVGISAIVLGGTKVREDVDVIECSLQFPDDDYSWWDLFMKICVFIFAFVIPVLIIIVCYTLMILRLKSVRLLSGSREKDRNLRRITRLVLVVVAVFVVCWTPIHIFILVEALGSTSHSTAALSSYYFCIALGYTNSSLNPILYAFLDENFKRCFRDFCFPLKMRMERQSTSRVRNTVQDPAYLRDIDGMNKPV

[4] = female reproductive organs (pooled), pooled organs, read-out: Reproductive Organs concentration
[5] = plasma, read-out: Plasma concentration

Compound	solubility kinetic (Kinetic solubility)	inhibition at 10 µM (hSLO2.1)	IC50 (CYP2D6)	% of Parent Related Material, Rat [1]	concentration at 0.25 h [2, 4]	concentration at 0.25 h [2, 5]	Kp at 0.25 h [2]	inhibition at 10 µM (Adenosine A2A)	inhibition at 10 µM (Adrenergic α1B)	% inhibition at 10 μM [3]	% inhibition at 10 μM (Glutamate, NMDA, Agonism)	inhibition at 10 µM (Interleukin IL-1 R1)	inhibition at 10 µM (Melatonin MT1)	inhibition at 10 µM (Opiate κ (OP2, KOP))
Cc1cc(Cl)cc2sc(O[C@@H]3CCN(C(=O)CCCS(=O)(=O)c4cccc(Br)c4)C[C@H]3F)nc12 [VU6047607]	< 0.85 µM	–	–	–	–	–	–	–	–	–	–	–	–	–
Cc1cc(Cl)cc2sc(O[C@@H]3CCN(C(=O)CCCS(=O)(=O)c4cccc(Br)c4)C[C@@H]3F)nc12 [VU6047608]	< 0.85 µM	–	–	–	–	–	–	–	–	–	–	–	–	–
Cc1cc(Cl)cc2sc(OC3CCN(C(=O)CCCS(=O)(=O)c4cccc(Br)c4)CC3F)nc12 (centres unmarked) [VU6045330]	–	22%	–	–	–	–	–	–	–	–	–	–	–	–
Cc1cc(Cl)cc2sc(O[C@H]3CCN(C(=O)CCCS(=O)(=O)c4cccc(Br)c4)C[C@@H]3F)nc12 [VU6047609]	< 0.85 µM	–	–	–	–	–	–	–	–	–	–	–	–	–
Cc1cc(Cl)cc2sc(O[C@H]3CCN(C(=O)CCCS(=O)(=O)c4cccc(Br)c4)C[C@H]3F)nc12 [VU6047606]	< 0.85 µM	4%	> 30 µM	90.93% and > 82%	56.6 ng/mL	121 ng/mL	0.47	0%	12%	49%	-18%	1%	19%	-13%
O=C(c1ccc(OCc2ccc(OC(F)(F)F)cc2)cc1)N1CCN(c2ccc(C(F)(F)F)cn2)CC1 [VU6032735]	< 0.95 µM	22%	> 30 µM	> 98%	1070 ng/mL	85.3 ng/mL	12.7	-6%	-5%	67%	-8%	-7%	8%	-16%
